Assay results as given in patent publication US11109593B2, “Isoxazolin-5-one derivative and herbicide containing same as active ingredient” (HOKKO CHEMICAL INDUSTRY CO., LTD., priority 2017, dated 2021).

Experiments:
[1] = tested on: Echinochloa crus-galli; assay: Test Example 4: herbicidal effect test by treatment of leave and stem in dry field farming (seven days after seeding); format: in vivo; conditions: 120 g/10a active ingredient, emulsion sprayed seven days after seeding, evaluated 14 days after treatment; for pest or weed control at 1200 g/ha: Echinochloa crus-galli, 336 h, read-out: herbicidal effect (herbicidal rate), Echinochloa crus-galli
How it was run: (§1)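 Duplicate pots were scored 14 days post-spray by dry weight, herbicidal rate = {1 − treated/untreated average dry weight} × 100. The water-diluted emulsion, equivalent to 120 g active ingredient per 10 ares in 100 L, was applied seven days after sowing 20 seeds each into the upper 1 cm of alluvial soil.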

[2] = tested on: Chenopodium album; assay: as above; format: in vivo; conditions: 120 g/10a active ingredient, emulsion sprayed seven days after seeding, evaluated 14 days after treatment; for pest or weed control at 1200 g/ha: Chenopodium album, 336 h, read-out: herbicidal effect (herbicidal rate), Chenopodium album
How it was run: as §1

[3] = tested on: southern crabgrass; assay: as above; format: in vivo; conditions: 120 g/10a active ingredient, emulsion sprayed seven days after seeding, evaluated 14 days after treatment; for pest or weed control at 1200 g/ha: Digitaria ciliaris, 336 h, read-out: herbicidal effect (herbicidal rate), southern crabgrass
How it was run: as §1

[4] = tested on: Amaranthus viridis; assay: as above; format: in vivo; conditions: 120 g/10a active ingredient, emulsion sprayed seven days after seeding, evaluated 14 days after treatment; for pest or weed control at 1200 g/ha: Amaranthus viridis, 336 h, read-out: herbicidal effect (herbicidal rate), Amaranthus viridis
How it was run: as §1

[5] = tested on: Echinochloa crus-galli; assay: Test Example 3: herbicidal effect test by treatment of dry field farming soil (one day after seeding); format: in vivo; conditions: 120 g/10a active ingredient, evaluated 14 days after treatment; for pest or weed control at 1200 g/ha: Echinochloa crus-galli, 336 h, read-out: herbicidal rate, Echinochloa crus-galli
How it was run: (§2)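 Weeds were seeded into the upper soil layer of alluvial field soil and, one day afterwards, the soil surface was sprayed with water-diluted emulsion delivering 120 g active ingredient per 10 ares. Mean plant dry weight relative to untreated pots after 14 days gave the herbicidal rate, tested in duplicate.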

[6] = tested on: Chenopodium album; assay: as above; format: in vivo; conditions: 120 g/10a active ingredient, evaluated 14 days after treatment; for pest or weed control at 1200 g/ha: Chenopodium album, 336 h, read-out: herbicidal rate, Chenopodium album
How it was run: as §2

[7] = tested on: southern crabgrass; assay: as above; format: in vivo; conditions: 120 g/10a active ingredient, evaluated 14 days after treatment; for pest or weed control at 1200 g/ha: Digitaria ciliaris, 336 h, read-out: herbicidal rate, southern crabgrass
How it was run: as §2

[8] = tested on: Amaranthus viridis; assay: as above; format: in vivo; conditions: 120 g/10a active ingredient, evaluated 14 days after treatment; for pest or weed control at 1200 g/ha: Amaranthus viridis, 336 h, read-out: herbicidal rate, Amaranthus viridis
How it was run: as §2

[9] = tested on: Scirpus juncoides; assay: Test Example 2: herbicidal effect test by treatment during growing period in paddy rice cultivation (seven days after seeding); format: in vivo; conditions: 120 g/10a active ingredient, assessed 14 days after treatment, dry weight vs untreated area; for pest or weed control at 1200 g/ha: Schoenoplectiella juncoides, 336 h, read-out: herbicidal rate (%) Scirpus juncoides
How it was run: (§3)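 Sow 30 seeds per species (0–1 cm) into puddled, fertilized paddy soil; keep flooded ~3 cm in greenhouse. Day 7 after seeding: drop water-diluted emulsion, 120 g a.i./10 ares. Harvest 14 d post-treatment; compare dry weight with untreated pots (duplicate).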

[10] = tested on: Echinochloa crus-galli; assay: as above; format: in vivo; conditions: 120 g/10a active ingredient, assessed 14 days after treatment, dry weight vs untreated area; for pest or weed control at 1200 g/ha: Echinochloa crus-galli, 336 h, read-out: herbicidal rate (%) Echinochloa crus-galli
How it was run: as §3

[11] = tested on: broad leaf weeds (Lindernia pyxidaria and Monochoria vaginalis); assay: as above; format: in vivo; conditions: 120 g/10a active ingredient, assessed 14 days after treatment, dry weight vs untreated area; for pest or weed control at 1200 g/ha: 336 h
How it was run: as §3

[12] = tested on: Scirpus juncoides; assay: Test Example 1: herbicidal effect test by treatment of rice paddy soil (immediately after seeding); format: in vivo; conditions: 120 g/10a active ingredient, dry weight vs untreated area, 14 days after treatment; for pest or weed control at 1200 g/ha: in Schoenoplectiella juncoides, 336 h, read-out: Herbicidal rate (%) Scirpus juncoides
How it was run: (§4)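 Values are herbicidal rates (%) derived from average plant dry weight in treated versus untreated pots 14 days after treatment, run in duplicate. Treatment was a water-diluted emulsion dropped into flooded paddy soil right after sowing, at 120 g active ingredient per 10 ares.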

[13] = tested on: Echinochloa crus-galli; assay: as above; format: in vivo; conditions: 120 g/10a active ingredient, dry weight vs untreated area, 14 days after treatment; for pest or weed control at 1200 g/ha: in Echinochloa crus-galli, 336 h, read-out: Herbicidal rate (%) Echinochloa crus-galli
How it was run: as §4

[14] = tested on: broad leaf weeds (Lindernia pyxidaria and Monochoria vaginalis); assay: as above; format: in vivo; conditions: 120 g/10a active ingredient, dry weight vs untreated area, 14 days after treatment; for pest or weed control at 1200 g/ha: 336 h
How it was run: as §4

[15] = Lindernia pyxidaria, read-out: herbicidal rate (%) Lindernia pyxidaria
[16] = Monochoria vaginalis, read-out: herbicidal rate (%) Monochoria vaginalis
[17] = Monochoria vaginalis, read-out: Herbicidal rate (%) Monochoria vaginalis
[18] = in Lindernia, Lindernia pyxidaria, read-out: Herbicidal rate (%) Lindernia pyxidaria

Row | SMILES | pest or weed control at 1200 g/ha [1] | pest or weed control at 1200 g/ha [2] | pest or weed control at 1200 g/ha [3] | pest or weed control at 1200 g/ha [4] | pest or weed control at 1200 g/ha [5] | pest or weed control at 1200 g/ha [6] | pest or weed control at 1200 g/ha [7] | pest or weed control at 1200 g/ha [8] | pest or weed control at 1200 g/ha [9] | pest or weed control at 1200 g/ha [10] | pest or weed control at 1200 g/ha [11, 15] | pest or weed control at 1200 g/ha [11, 16] | melting point | pest or weed control at 1200 g/ha [12] | pest or weed control at 1200 g/ha [13] | pest or weed control at 1200 g/ha [14, 17] | pest or weed control at 1200 g/ha [14, 18] | also measured
1 | CCC(C)n1oc(=O)c(Cc2ccccc2N(C(=O)OC)S(=O)(=O)C(F)(F)F)c1C (stereo not drawn) [Compound 1-577, methyl N-[2-[(3-methyl-5-oxo-2-sec-butyl-isoxazol-4-yl)methyl]phenyl]-N-(trifluoromethylsulfonyl)carbamate] | 90% | 40% | 90% | 40% | 90% | 90% | 90% | 90% | 90% | 90% | 90% | 90% | 75 to 80 °C | 90% | 90% | 90% | 90% | –
2 | COCC(C)n1oc(=O)c(Cc2ccccc2NS(=O)(=O)C(F)(F)F)c1C (stereo not drawn) [Compound 1-149, 1,1,1-trifluoro-N-[2-[[2-(2-methoxy-1-methyl-ethyl)-3-methyl-5-oxo-isoxazol-4-yl]methyl]phenyl]methanesulfonamide] | 90% | 40% | 90% | 40% | 90% | 40% | 90% | 40% | 90% | 100% | 90% | 90% | 107 to 109 °C | 90% | 90% | 90% | 90% | –
3 | COCC(C)n1oc(=O)c(Cc2ccccc2N(S(=O)(=O)C(F)(F)F)S(=O)(=O)C(F)(F)F)c1C (stereo not drawn) [Compound 1-997, 1,1,1-trifluoro-N-[2-[[2-(2-methoxy-1-methyl-ethyl)-3-methyl-5-oxo-isoxazol-4-yl]methyl]phenyl]-N-(trifluoromethylsulfonyl)methanesulfonamide] | 70% | 0% | 40% | 40% | 90% | 50% | 90% | 50% | 90% | 90% | 70% | 90% | 116 to 118 °C | 90% | 90% | 80% | 90% | –
4 | Cc1c(Cc2ccccc2N(S(=O)(=O)C(F)(F)F)S(=O)(=O)C(F)(F)F)c(=O)on1CC(C)C [Compound 1-967, 1,1,1-trifluoro-N-[2-[(2-isobutyl-3-methyl-5-oxoisoxazol-4-yl)methyl]phenyl]-N-(trifluoromethylsulfonyl)methanesulfonamide] | 60% | 40% | 0% | 40% | 50% | 40% | 90% | 80% | 80% | 90% | 100% | 90% | 120 to 122 °C | 90% | 90% | 100% | 90% | –
5 | C=CCOC(=O)N(c1ccccc1Cc1c(C)n(CCSC)oc1=O)S(=O)(=O)C(F)(F)F [Compound 1-709] | – | – | – | – | – | – | – | – | – | – | – | – | – | – | – | – | – | herbicidal effect (herbicidal rate), Echinochloa crus-galli [1]: 90%; herbicidal effect (herbicidal rate), Chenopodium album [2]: 40%; herbicidal effect (herbicidal rate), southern crabgrass [3]: 90%; herbicidal effect (herbicidal rate), Amaranthus viridis [4]: 40%; herbicidal rate, Echinochloa crus-galli [5]: 90%; herbicidal rate, Chenopodium album [6]: 90%; herbicidal rate, southern crabgrass [7]: 90%; herbicidal rate, Amaranthus viridis [8]: 90%; Herbicidal rate (%) Scirpus juncoides [9]: 90%; Herbicidal rate (%) Echinochloa crus-galli [10]: 90%; Herbicidal rate (%) Lindernia pyxidaria ([11]; Lindernia pyxidaria): 90%; Herbicidal rate (%) Monochoria vaginalis ([11]; Monochoria vaginalis): 90%; Herbicidal rate (%) Scirpus juncoides [12]: 90%; Herbicidal rate (%) Echinochloa crus-galli [13]: 90%; Herbicidal rate (%) Lindernia pyxidaria ([14]; Lindernia pyxidaria): 90%; Herbicidal rate (%) Monochoria vaginalis ([14]; Monochoria vaginalis): 90%
